These results are taken from US5589472A, “Diindolo compounds and pharmaceutical compositions containing them” (priority 1995, dated 1996).

For orientation: IC50 means the concentration at which inhibition is half-maximal. One may read the inhibition as the relative decrease from the control value, in per cent. Lower therefore signals a weak effect.

Like-named read-outs stand apart in the source and are kept apart here.

Assay [1] concerns the target Protein Kinase C ("PKC"). Kind of assay: Protein Kinase C (PKC) in vitro inhibition (histone III-S phosphorylation). The assay is classed as biochemical. As to conditions: partially purified rat brain PKC, 5 μM ATP, 23° C., 15 minutes. How it is done:
A. Protein Kinase C ("PKC") Protocol
Protein Kinase C (PKC) was partially purified from rat brain by chromatography on DEAE-Sephacel according to Shearman et al, Methods in Enzymology […] (1989) and Bishop et al, Biochemical Pharmacology 40:2129-2135 (1990)which are hereby incorporated by reference. PKC was assayed in a reaction mixture (0.25 mL total volume) containing: 20 mM Tris-HCl (pH 7.5); 200 μg/mL histone III-S 10 mM MgCl2; 5 μM [γ-^32 ] ATP (4×10^6 cpm/nmol); 200 μM CaCl2; 32 μg/mL phosphatidylserine; 1.6 μg/mL 1-oleoyl-2-acetyl glycerol and various concentrations of compounds of formula I of the invention were added from stock solutions in dimethylsulfoxide (DMSO). The final concentration of DMSO in the reaction was 2%. Reactions were started by addition of approximately 7 μg of partially purified PKC and allowed to proceed at 23° C. for 15 minutes. Reactions were terminated by addition of 1 mL of ice-cold 15% trichloracetic acid and 1 mL of cold 0.5 mg/mL bovine serum albumin to precipitate the histone III-S substrate. After 10 minutes on ice, precipitated phosphoproteins were collected on Whatman GF/C filters using a Brandel cell harvester. Filters were placed in scintillation vials with 5 mL of Ready Safe scintillation cocktail and radioactivity trapped on the filter was quantitated by liquid scintillation counting. Percent inhibition of PKC activity was calculated relative to the activity observed in the DMSO controls.

Assay [2] concerns HT1080 human fibrosarcoma cells. Kind of assay: Tumor Cell Invasion Assay (Matrigel). The assay is classed as cell-based. As to conditions: HT-1080, @ 45 μg/mL, 5 hours at 37° C. How it is done:
Tumor Cell Invasion Assay
The cell invasion assay quantitates the ability of malignant cells to invade a reconstituted basement membrane matrix. The assay is performed essentially as described in the two articles which are cited at the end of this sentence and which are herein incorporated by reference. Kramer et al Invasion of reconstituted basement membrane matrix by metastatic tumor cells. Cancer Res. 46: […]; and Albini et al A Rapid in vitro assay for quantitating the invasive potential of tumor cells. Cancer Res. 3239-3245, 198. Modifications were made to permit evaluation of pharmacologic effectors in this system and to increase screening throughput.
Polyvinylpyrrolidone-free polycarbonate filters (25×80 mm; 8 μm pore size (Nucleopore, Pleasantan, Calif.) were coated with 100 μg human fibronectin (Boehringer-Mannheim Corp., Indianapolis, Ind.) for 1 hour, permitted to air dry 5 to 10 minutes, and then coated overnight with Matrigel (500 μg/filter; Collaborative Research, Bedford, Mass.). Filters were then rehydrated with serum-free DMEM and assembled into 48-microwell chemotaxis chambers (Neuroprobe, Cabin Johbn, Md.). See Blood et al Identification of a tumor cell receptor for VGVAPG, an elastin-derived chemotactic peptide. J. Cell Biol. 107:1987-1994, 1988 which is herein incorporated by reference. Compounds tested were placed in upper wells of the chambers with HT1080 human fibrosarcoma cells (3.5×10^4 cells/well). For primary screens the final concentration of compounds was 45 μg/ml.
Chambers were incubated for 5 hours at 37° C. in a 5% CO2 humidified atmosphere. After incubation chambers were disassembled and the filters were fixed and stained with Diff-Quik reagents (Baxter Scientific, McGaw Park, Ind.). […] The filter was then mounted between 2 glass slides and tumor cells that had invaded the Matrigel barrier in each microwell were quantitated as "% area covered by cells" with a Cue-2 Image Analysis System (Olympus Corp., Lake Success, N.Y.). When assayed under these conditions HT1080 cells (with or without Dimethylsulfoxide (DMSO) as a vehicle control) typically invade such that 34-40% surface is covered by cells and an invasion to this degree is defined as 100% invasion for the purposes of this test. Effects of compounds on the invasion are expressed as % inhibition based on the value obtained with vehicle control.

The test system of assay [3] is Superoxide generation in human neutrophils. Kind of assay: Neutrophil test: inhibition of superoxide generation in human neutrophils. It is filed as cell-based. As to conditions: 0.25 h, SO release induced by fMLP (100 nM) or PMA (100 nM), stimulus not stated, 15 minutes at 37° C. The text has this: Inhibition of Superoxide Generation in Human Neutrophils
One of the histological changes which occurs in psoriasis is infiltration of neutrophils into epidermis and dermis. Superoxide (SO) generation by neutrophils causes oxidative tissue damage during inflammatory processes. PKC plays an essential role in SO release in neutrophils. Formyl peptides (fMLP), important chemoattractants involved in cell recruitment to local inflammatory sites, promote the release of SO anion. The tumor promoting phorbol ester, phorbol-12 myristate-13-acetate (PMA), also induces SO release.
Neutrophils were prepared from human peripheral blood. SO release was induced by fMLP (100 nM) or PMA (100 nM) and measured as SO dismutase-inhibitable reduction of cytochrome c. Preincubation of the compound tested with 3-5×10^6 cells was for 15 minutes in the presence of cytochalasin B ([…]) before addition of the stimulant, fMLP or PMA. 15 minutes after stimulation at 37° C., the reaction was stopped. The quantity of SO anion release was determined as the difference between the absorbance at 550 nm in the presence and absence of SO dismutase.
Antiinflammatory activity of the compounds of the invention was determined by use of the processes set forth in the following literature which is hereby incorporated by reference. Fischer et al Carcinogenesis 11:[…]; and Gupta et al Soc. Inv. Dermotol 91:5, 486-491, 1988 and Nakadate et al J. Pharmacolo. 38 161-168,(1985); and Viaje et al Cancer Res. 37,1530-1536, 1977.

In assay [4] the test system is Mouse skin. Kind of assay: Mouse Skin Assay (TPA-induced blister formation). The assay is classed as in vivo. As to conditions: compound in acetone (25 μl), then TPA (12.5 μl); evaluated 18 hours after treatment. How it is done: Mice were treated first with compounds dissolved in acetone (25 μl), and then 30 seconds with TPA (12.5 μl). Blister formation was evaluated 18 hours after treatment. Each mouse was scored on a scale of 1-4 where 4 equals presence of a complete blister, 3 equals slight reduction in blister formation, 2 equals a 50% reduction in blister formation and 1 equals a complete absence of blisters.

Where [5] appears, read: read-out: IN VITRO INHIBITION OF PKC IC50 (nanomolar) except where otherwise indicated.
[6] abbreviates: read-out: IN VITRO INHIBITION OF PKC IC50 (unit indicated in cell).

With `C[C@@H]1n2c3ccccc3c3c4c(c5c6ccccc6n(c5c32)[C@@H](C)S1(=O)=O)C(=O)NC4=O` (relative stereo) [trans-25], the concentration for half-maximal inhibition (IC50) in assay [1] (setting [5]) was 120 nM.

Regarding `N=C1NC(=O)c2c1c1c3ccccc3n3c1c1c2c2ccccc2n1CN(Cc1ccccc1)C3` [Compound 1], the IC50 in assay [1] (setting [6]) is above 5000 nM.

Turning to `O=C1NC(=O)c2c1c1c3ccccc3n3c1c1c2c2ccccc2n1CN(Cc1ccccc1)C3` [Compound 2], the inhibition at 45 µg/mL in assay [2] came out at 35%. For the same compound, the IC50 in assay [1] (setting [6]) was above 50000 nM.

Turning to `O=C1NC(=O)c2c1c1c3ccccc3n3c1c1c2c2ccccc2n1CN(O)C3` [Compound 3], the inhibition at 45 µg/mL in assay [2] worked out at 48%. In addition, the IC50 in assay [1] (setting [5]) worked out at 90 nM.

In turn, `O=C1NC(=O)c2c1c1c3ccccc3n3c1c1c2c2ccccc2n1CNC3` [Compound 4] returned an inhibition at 45 µg/mL in assay [2] of 86%. Further, the IC50 in assay [1] (setting [5]) amounted to 145 nM.

With `CN1Cn2c3ccccc3c3c4c(c5c6ccccc6n(c5c32)C1)C(=O)NC4=N` [Compound 5], the inhibition at 45 µg/mL in assay [2] stood at 46%. Further, the IC50 in assay [1] (setting [5]) was found to be 150 nM.

As to `CN1Cn2c3ccccc3c3c4c(c5c6ccccc6n(c5c32)C1)C(=O)NC4=O` [Compound 6], the inhibition at 45 µg/mL in assay [2] amounted to 66%. In addition, the IC50 in assay [1] (setting [5]) turned out to be 86 nM.

Take `O=C(O)CN1Cn2c3ccccc3c3c4c(c5c6ccccc6n(c5c32)C1)C(=O)NC4=O` [Compound 7]: testing at 45 µg/mL in assay [2] gave an inhibition of 0%. The half-inhibitory concentration (IC50) in assay [1] (setting [5]) was found to be 480 nM.

Regarding `CN(C)CCN1Cn2c3ccccc3c3c4c(c5c6ccccc6n(c5c32)C1)C(=O)NC4=N` [Compound 8], the inhibition at 45 µg/mL in assay [2] is 46%. For the same compound, the 50% inhibitory concentration (IC50) in assay [1] (setting [5]) turned out to be 160 nM.

In assay [2], `CN(C)CCN1Cn2c3ccccc3c3c4c(c5c6ccccc6n(c5c32)C1)C(=O)NC4=O` [Compound 9] yielded an inhibition at 45 µg/mL of 52%. In addition, in assay [1] (setting [5]), the IC50 amounted to 120 nM.

For the compound `O=C1NC(=O)c2c1c1c3ccccc3n3c1c1c2c2ccccc2n1CN(CCO)C3` [Compound 10], at 45 µg/mL the inhibition in assay [2] was 72%. For the same compound, the IC50 in assay [1] (setting [5]) was determined as 17 nM.

With `COCCOCCOCCN1Cn2c3ccccc3c3c4c(c5c6ccccc6n(c5c32)C1)C(=O)NC4=N` [Compound 11], in assay [2], the inhibition at 45 µg/mL came to 42%. The IC50 in assay [1] (setting [5]) is around 500 nM.

In assay [2], `COCCOCCOCCN1Cn2c3ccccc3c3c4c(c5c6ccccc6n(c5c32)C1)C(=O)NC4=O` [Compound 12] came in with an inhibition at 45 µg/mL of 20%. Also, the IC50 in assay [1] (setting [5]) was around 100 nM.

`CN1Cn2c3ccccc3c3c4c(c5c6ccccc6n(c5c32)C1)C(=O)NC4` [Compound 13] returned an inhibition at 45 µg/mL in assay [2] of 26%. Also, in assay [1] (setting [5]), the IC50 was 90 nM.

`N=C1NC(=O)c2c1c1c3ccccc3n3c1c1c2c2ccccc2n1COC3` [Compound 15]: at 45 µg/mL the inhibition in assay [2] was 30%. Further, the IC50 in assay [1] (setting [5]) is 62 nM.

As for `O=C1NC(=O)c2c1c1c3ccccc3n3c1c1c2c2ccccc2n1COC3` [Compound 16], the inhibition at 45 µg/mL in assay [2] is 46%. Moreover, the IC50 in assay [1] (setting [5]) came to 11 nM.

In the case of `N=C1NC(=O)c2c1c1c3ccccc3n3c1c1c2c2ccccc2n1CSC3` [Compound 17], the figures for the IC50 in assay [3] and in assay [1] (setting [5]) were above 10000 nM and 24 nM, respectively. Further, 45 µg/mL produced 53% inhibition in assay [2].

Regarding `O=C1NC(=O)c2c1c1c3ccccc3n3c1c1c2c2ccccc2n1CSC3` [Compound 18], the IC50 was above 10000 nM in assay [3] and 14 nM in assay [1] (setting [5]). In addition, in assay [2], testing at 45 µg/mL gave an inhibition of 18%.

The compound `O=C1NCc2c1c1c3ccccc3n3c1c1c2c2ccccc2n1CSC3` [Compound 19] showed an inhibition at 45 µg/mL in assay [2] of 100%. Moreover, the IC50 in assay [1] (setting [5]) was determined as 7 nM.

Regarding `O=C1NC(=O)c2c1c1c3ccccc3n3c1c1c2c2ccccc2n1C[S+]([O-])C3` [Compound 20], the IC50 in assay [3] was above 10000 nM; in assay [1] (setting [5]), 19 nM.

For `O=C1NCc2c1c1c3ccccc3n3c1c1c2c2ccccc2n1CS(=O)(=O)C3` [Compound 23], the IC50 in assay [3] was 900 nM; in assay [1] (setting [5]), 5 nM. Further, in assay [4], the “Mouse Skin (active/inactive by visual evaluation of blister formation)” value is recorded as “active”. Besides, in assay [2], at 45 µg/mL the inhibition was 57%.

With `O=C1NC(=O)c2c1c1c3ccccc3n3c1c1c2c2ccccc2n1CS(=O)(=O)C3` [Compound 26], the IC50 in assay [3] is 1600 nM; in assay [1] (setting [5]) it was 2 nM. The “Mouse Skin (active/inactive by visual evaluation of blister formation)” value in assay [4] was “inactive”.

Turning to `C[C@@H]1n2c3ccccc3c3c4c(c5c6ccccc6n(c5c32)[C@H](C)S1(=O)=O)C(=O)NC4=O` [cis-25], in assay [1] (setting [5]), the IC50 stood at 2.4 nM.
